{"source": "patent US20230364112A1", "about": "“Use of Antcin H and Its Derivatives for Treating Central Nervous System Diseases” (ALPS BIOTECH CO., LTD., priority 2020, published 2023)", "key": {"BV2 microglia": {"system": "BV2 microglia", "assay": "iNOS and NLRP3 Western blotting in LPS and ATP activated BV2 microglia", "type": "cell-based", "settings": "1 μg/ml LPS 5 h, 1 or 5 μM Antcin H 0.5 h, 1 mM ATP 24 h", "procedure": "(§1) BV2 microglia were treated with or without 1 μg/ml LPS for 5 h, followed by treated with or without 1 or 5 μM Antcin H for 0.5 h. Cells were then activated by 1 mM ATP for 24 h. The IL-1β levels in the supernatants were measured by ELISA, and the levels of iNOS and NLRP3 in the cell lysates were measured by Western blotting. J774A.1 macrophages were treated with or without 1 μg/ml LPS for 5 h, followed by treated with or without Antcin H for 0.5 h. Cells were then activated by 5 mM ATP for 0.5 h. The IL-1β levels in the supernatants were measured by ELISA.\n(§2) Microglia are macrophage-like immune cells of the central nervous system. […] (Subhramanyam et al., 2019). In addition, overexpressed IL-1β, the end-product of the NLRP3 inflammasome, plays important roles in the development of many diseases including neurodegenerative diseases (Siew et al., 2019). NLRP3 inflammasome composed of NLRP3, ASC and caspase-1 and controls the maturation and release of IL-1β. NLRP3 inflammasome can be activated by medical relevant stimuli such as ATP from damage tissues and amyloid-β of Alzheimer's disease (Guo et al., 2015). […] BV2 microglia were treated with or without 1 μg/ml LPS for 5 h, followed by treated with or without 1 or 5 μM Antcin H for 0.5 h. Cells were then activated by 1 mM ATP for 24 h. The data are presented as the mean±SEM from three independent experiments. […]"}, "[1]": {"system": "NLRP3 inflammasome in BV2 microglia", "assay": "IL-1β ELISA in LPS-primed, ATP-activated BV2 microglia", "type": "cell-based", "settings": "1 μg/ml LPS 5 h, 1 or 5 μM Antcin H 0.5 h, 1 mM ATP 24 h", "procedure": "as §1, §2"}, "activated microglia": {"system": "activated microglia", "assay": "lba-1 immunofluorescence staining for activated microglia in striatum of R6/2 mice", "type": "in vivo", "settings": "10 mg/kg oral gavage daily, age 7 to 12 weeks, vs vehicle-treated R6/2 mice", "procedure": "(§3) FIG. 4A: The numbers of activated microglia in the striatum were identified by lba1 staining (green color), and the numbers of NLRP3 positive cells in the striatum were identified by NLRP3 staining (red color). Nuclei were stained with Hoechst (blue color).\n(§4) The method was according to the previous report. In brief, brain sections were incubated overnight with anti-lba-I polyclonal antibody (1:500), anti-NeuN polyclonal antibody (1:500), anti-NLRP3 monoclonal antibody (1:200) or anti-EM48 monoclonal antibody (1:500) in PBS containing 5% normal goat serum at 4° C. and then incubated with the corresponding secondary antibody for 2 h at room temperature. Nuclei were stained with Hoechst 33258. Slides were mounted and analyzed with a laser confocal microscope.\n(§5) HD commonly associated with inflammation in nervous system and activated microglia. […] FIG. 4 show Antcin H reduced NLRP3 expression in microglia of R6/2 mice. R6/2 mice or WT mice were treated with AH (10 mg/kg of body weight) or vehicle by oral gavage daily starting from the age of 7 weeks to the age of 12 weeks. WT-Vehicle: n=6; WT-AH: n=6; R6/2-vehicle: n=6; R6/2-AH: n=6. The data are presented as the mean±SEM. Label “a” in chart means p<0.05, between WT and R6/2 mice. Label “b” in chart means p<0.05 vs. vehicle-treated R6/2 mice."}, "NLRP3": {"system": "NLRP3", "assay": "NLRP3 immunofluorescence staining in striatum of R6/2 mice", "type": "in vivo", "settings": "10 mg/kg oral gavage daily, age 7 to 12 weeks, vs vehicle-treated R6/2 mice", "procedure": "as §3, §4, §5"}, "R6/2 mice [2]": {"system": "R6/2 mice", "assay": "Neuronal death in R6/2 mice brain (NeuN immunofluorescence staining, Western blotting)", "type": "in vivo", "settings": "10 mg/kg oral gavage daily", "procedure": "(§6) FIG. 3A: The numbers of neurons (identified by the expression of NeuN; green color) and the level of mutant huntingtin (red color) in the striatum of the mice were analyzed by confocal microscope. Nuclei were stained with Hoechst (blue color).\nas §4\nThe present example further investigates the effect of Antcin H in the neuronal death of R6/2 mice brains by immunofluorescence staining. […] R6/2 mice or WT mice were treated with AH (10 mg/kg of body weight) or vehicle by oral gavage daily starting from the age of 7 weeks to the age of 12 weeks. WT-Vehicle: n=6; WT-AH: n=6; R6/2-vehicle: n=6; R6/2-AH: n=6. The data are presented as the mean±SEM. Label “a” in chart means p<0.05, between WT and R6/2 mice. Label “b” in chart means p<0.05 vs. vehicle-treated R6/2 mice."}, "STHdh^Q109 cells [3]": {"system": "STHdh^Q109 cells", "assay": "Cell viability analysis (CCK-8 assay) in a cell model of HD", "type": "cell-based, mice", "settings": "24 h, vs vehicle-treated cells", "description": "(§7) Conditionally immortalized wild-type STHdh^Q7 striatal neuronal progenitor cells expressing endogenous normal htt (referred to as wild-type striatal cells), and homozygous mutant STHdh^Q109 striatal neuronal progenitor cells from homozygous STHdh^Q109 knock-in mice expressing mutant htt with 109 glutamines (referred to as mutant striatal cells). STHdh^Q7 and STHdh^Q109 cells were generous gifts from Dr. Elena Cattaneo and Marta Valenza (Department of pharmacological sciences and center for stem cell research, University of Milano, Italy). These cells were maintained in an incubation chamber at 33° C. in Dulbecco's modified Eagle's medium supplemented with 10% fetal bovine serum.\nSTHdh^Q7 and STHdh^Q109 cells were treated with 5 or 10 μM Antcin H or vehicle (DMSO) for 24 h. STHdh^Q7 and STHdh^Q109 cells viability was quantified by the CCK-8 assay. The survival rate of the indicated cells was normalized to those survival rate of vehicle-treated STHdh^Q7 cells.\nTo investigate the neuroprotective potential of Antcin H in CNS disease, the present example used striatal cell line as an in vitro model of Huntington's disease. STHdh^Q109 cells carry the polyQ-expanded mouse gene Htt, which encodes 109 CAG repeats in the Htt gene. Compared with STHdh^Q109 cells, the control cell line (STHdh^Q7) only carry 7 copies of the CAG repeat. […]"}, "J774A.1 macrophages": {"system": "J774A.1 macrophages", "assay": "ATP-induced intracellular ROS (CM-H2DCFDA) in LPS-primed J774A.1 macrophages", "type": "cell-based", "settings": "1 μg/ml LPS 5 h, 50 μM Antcin H 0.5 h, 5 mM ATP 0-60 min", "procedure": "(§8) FIG. 6A: J774A.1 macrophages were treated with or without 1 μg/ml LPS for 5 h, followed by treated with or without Antcin H for 0.5 h. Cells were then activated by 5 mM ATP for 0.5 h; FIG. 6B: J774A.1 macrophages were treated with or without 1 μg/ml LPS for 5 h, followed by treated with or without 50 μM Antcin H for 0.5 h. Cells were then activated by 5 mM ATP for 0-60 min.\n(§9) STHdh^Q7 and STHdh^Q109 cells were treated with 5 or 10 μM Antcin H or vehicle (DMSO) in the presence of 10 μM intracellular ROS indicator fluorescent probe CM-H2DCFDA (Molecular Probes, Inc., Eugene, Oregon, USA) for 1 h. Intracellular ROS (Reactive Oxygen Species) levels were measured by detecting the fluorescence intensity (Excitation/Emission: 488 nm/510 nm) using a fluorescence plate reader (Fluoroskan Ascent; Thermo Electron Corporation, Woburn, MA, USA). J774A.1 macrophages were treated with or without 1 μg/ml LPS for 5 h, followed by treated with or without 50 μM Antcin H for 0.5 h. […] The levels of intracellular ROS were measured by CM-H2DCFDA staining and detected by a fluorescence plate reader.\nIn addition, ROS is one of the crucial elements for NLRP3 inflammasome activation (Tschopp and Schroder, 2010). […] The levels of intracellular ROS were measured by CM-H2DCFDA staining and detected at an excitation wavelength of 488 nm and an emission wavelength of 510 nm on a […]. […]"}, "R6/2 mice [4]": {"system": "R6/2 mice", "assay": "Disease progression of R6/2 transgenic mouse model of HD (body weight, rotarod, survival, clasping)", "type": "in vivo", "settings": "10 mg/kg oral gavage daily", "procedure": "R6/2 mice or wild-type mice were treated with Antcin H (10 mg/kg of body weight) or vehicle by oral gavage daily starting from the age of 7 weeks to the age of 12 weeks. Mice were tested on a Rotarod apparatus three times a week. Motor coordination was assessed using a rotarod apparatus assay (UGO BASILE, Comerio, Italy) at a constant speed (12 rpm) over a period of 2 min. The body weight and the lifespan were monitored weekly.\nTo investigate the therapeutic potential of Antcin H in the pathogenesis of Huntington's disease, R6/2 mice were used as an animal model of HD. R6/2 mice or wild-type mice were treated with Antcin H (10 mg/kg of body weight) or vehicle by oral gavage daily starting from the age of 7 weeks to the age of 12 weeks. […] WT-Vehicle: n=10; WT-AH: n=10; R6/2-vehicle: n=8; R6/2-AH: n=10. The data are presented as the mean±SEM. Label “a” in chart means p<0.05, between WT and R6/2 mice. Label “b” in chart means p<0.05 vs. R6/2-vehicle."}, "mutant huntingtin (mHtt)": {"system": "mutant huntingtin (mHtt)", "assay": "mHtt aggregation in striatum of R6/2 mice (confocal microscope, filter retardation assay)", "type": "in vivo", "settings": "10 mg/kg oral gavage daily, age 7 to 12 weeks, confocal intensity and filter retardation assay", "procedure": "as §6\nBrain tissues will be suspended and homogenized in ice-cold RIPA buffer (50 mM Tris-HCl, 0.25% sodium deoxycholate, 1% Triton X-100, 150 mM NaCl, 1 mM phenylmethylsulfonyl fluoride, 1 mM Na3VO4, 0.5 mg/mL aprotinin, 0.1 mM leupeptin, and 4 mM pepstatin), mixed with 2% SDS, and applied to OE66 membrane filters ([…]; Whatman Schleicher and Schuell, Middlesex, UK) through a slot-blot manifold (Bio-Rad, Irvine, CA, USA). The blots will be blocked with 5% skim milk in PBS and incubated overnight with an anti-EM48 antibody (1:500; Millipore Bioscience Research Reagents, Temecula, CA, USA) at 4° C., followed by incubation with the corresponding secondary antibody for 1 h at RT. The immunoreactive bands will be detected by ECL (Pierce, Rockford, IL, USA) and recorded using Kodak XAR-5 film.\nThe method was according to the previous report. […] Slides were mounted and analyzed with a laser confocal microscope. […]"}, "[5]": {"system": "NLRP3 inflammasome in J774A.1 macrophages", "assay": "IL-1β ELISA in LPS-primed, ATP-activated J774A.1 macrophages", "type": "cell-based", "settings": "1 μg/ml LPS 5 h, Antcin H 0.5 h, 5 mM ATP 0.5 h", "procedure": "as §8, §1"}, "STHdh^Q109 cells [6]": {"system": "STHdh^Q109 cells", "assay": "Intracellular ROS analysis (CM-H2DCFDA) in a cell model of HD", "type": "cell-based, mice", "settings": "5 or 10 μM Antcin H, H2DCFDA staining", "description": "as §7\nas §9, with “reader. […]” for “reader.”"}, "[7]": {"settings": "age 7 to 12 weeks, vs vehicle-treated R6/2 mice"}}, "data": [{"smiles": "C=C(CCC(=C)[C@H]1CCC2C3=C(C(=O)[C@H](O)[C@@]21C)[C@@]1(C)CC[C@@H](O)[C@@H](C)C1CC3=O)C(C)C(=O)O", "note": "(some centres unmarked) [Antcin H]", "values": [{"measurement": "expression level of NLRP3, Western blotting", "setting": "BV2 microglia", "value": "reduced the expression levels"}, {"measurement": "expression level of inducible nitric oxide synthase (iNOS), Western blotting", "setting": "BV2 microglia", "value": "reduced the expression levels"}, {"measurement": "ATP-induced IL-1β expression (IL-1β levels in the supernatants, ELISA)", "setting": "[1]", "value": "reduced ATP-induced IL-1β expression"}, {"measurement": "number of lba-1 positive cells in striatum", "setting": "activated microglia", "value": "decreased"}, {"measurement": "number of NLRP3 positive cells in striatum", "setting": "NLRP3", "value": "significantly reduced the number of NLRP3 positive cells"}, {"measurement": "neuronal cells number in the brain (NeuN, confocal microscope)", "setting": "R6/2 mice [2]; [7]", "value": "significant increased"}, {"measurement": "NeuN protein expression in the brain (Western blotting)", "setting": "R6/2 mice [2]; brain lysates at age of 12 weeks", "value": "increasing expression of NeuN protein"}, {"measurement": "cell survival ratio (CCK-8 assay)", "setting": "STHdh^Q109 cells [3]; 5 μM Antcin H", "value": "higher survival ratio then vehicle-treated cells"}, {"measurement": "cell survival ratio (CCK-8 assay)", "setting": "STHdh^Q109 cells [3]; 10 μM Antcin H", "value": "higher survival ratio then vehicle-treated cells"}, {"measurement": "ATP-induced ROS production", "setting": "J774A.1 macrophages", "value": "significantly reduced ATP-induced ROS production"}, {"measurement": "rotarod performance (latency to fall)", "setting": "R6/2 mice [4]; age 7 to 12 weeks, 12 rpm, 2 min", "value": "increased latency to fall"}, {"measurement": "body weight", "setting": "R6/2 mice [4]; [7]", "value": "higher weekly weight gain"}, {"measurement": "survival rate", "setting": "R6/2 mice [4]; at 12 weeks of age", "value": 100, "unit": "%"}, {"measurement": "clasping score", "setting": "R6/2 mice [4]; at 12 weeks of age, vs vehicle-treated R6/2 mice", "value": "lower clasping score"}, {"measurement": "mutant huntingtin aggregation in the striatum", "setting": "mutant huntingtin (mHtt)", "value": "reduced the mutant huntingtin aggregation"}, {"measurement": "ATP-induced IL-1β secretion (IL-1β levels in the supernatants, ELISA)", "setting": "[5]", "value": "inhibited by Antcin H (FIG. 6A) in a dose-dependent manner"}, {"measurement": "intracellular ROS levels", "setting": "STHdh^Q109 cells [6]", "value": "significantly reduced the intracellular ROS levels"}]}]}
